For data set [1], the system named is major crops. Kind of data set: Pre-emergence test experiment (crops). Format: in vivo. More on the design: key: 9: completely dead; 8: growth control rate is greater than or equal to 90% and less than 100%; 7: growth control rate is greater than or equal to 80% and less than 90%; 6: growth control rate is greater than or equal to 70% and less than 80%; growth control rate is greater than or equal to 50% and less than 70%; 4: growth control rate is greater than or equal to 30% and less than 50%; growth control rate is greater than or equal to 20% and less than 30%; growth control rate is greater than or equal to 10% and less than 20%; growth control rate is less than 10%; 0: no effect. The following applies: 30 g a.i./ha.

In data set [2] the test system is monocotyledonous and dicotyledonous weeds. Briefly: Pre-emergence test experiment (weeds). Set-up: key: 9: completely dead; 8: growth control rate is greater than or equal to 90% and less than 100%; 7: growth control rate is greater than or equal to 80% and less than 90%; 6: growth control rate is greater than or equal to 70% and less than 80%; growth control rate is greater than or equal to 50% and less than 70%; 4: growth control rate is greater than or equal to 30% and less than 50%; growth control rate is greater than or equal to 20% and less than 30%; growth control rate is greater than or equal to 10% and less than 20%; growth control rate is less than 10%; 0: no effect. Conditions: 30 g a.i./ha. The format is in vivo.

Turning to `Cc1ccc(-n2cnc(C(F)(F)F)n2)nc1Oc1cccc(OC(F)(F)F)c1` [Compound 9], in data set [1], the “Pre-emergence plant damage level (growth control rate) on Corn” value (shortened to “Pre-emergence plant damage level … on Corn”) was 0, the “Pre-emergence plant damage level (growth control rate) on Cotton” value (shortened to “Pre-emergence plant damage level … on Cotton”) stood at 0 and the “Pre-emergence plant damage level (growth control rate) on Soybean” value (“Pre-emergence plant damage level … on Soybean” for short) was determined as 0. Besides, in data set [2], the “Pre-emergence activity level (growth control rate) on Amaranthus retroflexus” value was 9, the “Pre-emergence activity level (growth control rate) on Descurainia sophia” value is reported as 9, the “Pre-emergence activity level (growth control rate) on Digitaria sanguinalis” value came out at 9 and the “Pre-emergence activity level (growth control rate) on Setaria viridis” value turned out to be 9. In addition, in data set [2], the “Pre-emergence activity level (growth control rate) on Solanum nigrum” value amounted to 9 and the “Pre-emergence activity level (growth control rate) on Veronica” value (“Pre-emergence activity level … on Veronica” for short) came to 9.
Take `Cc1ccc(-n2cnc(C(F)(F)F)n2)nc1Oc1ccc(F)c(C(F)(F)F)c1` [Compound 10]: in data set [1], the “Pre-emergence plant damage level … on Corn” value is 0, the “Pre-emergence plant damage level … on Cotton” value turned out to be 0 and the “Pre-emergence plant damage level … on Soybean” value came to 0. Also, in data set [2], the “Pre-emergence activity level (growth control rate) on Amaranthus retroflexus” value is listed as 9, the “Pre-emergence activity level (growth control rate) on Descurainia sophia” value stood at 9, the “Pre-emergence activity level (growth control rate) on Digitaria sanguinalis” value is listed as 9 and the “Pre-emergence activity level (growth control rate) on Setaria viridis” value is 9. Further, in data set [2], the “Pre-emergence activity level (growth control rate) on Solanum nigrum” value was 9 and the “Pre-emergence activity level … on Veronica” value is given as 9.
For the compound `Cc1ccc(-n2cnc(C(F)(F)F)n2)nc1Oc1cncc(C(F)(F)F)c1` [Compound 11], in data set [1], the “Pre-emergence plant damage level … on Corn” value came to 0, the “Pre-emergence plant damage level … on Cotton” value turned out to be 0 and the “Pre-emergence plant damage level … on Soybean” value is given as 0. Besides, in data set [2], the “Pre-emergence activity level (growth control rate) on Amaranthus retroflexus” value is 9, the “Pre-emergence activity level (growth control rate) on Descurainia sophia” value amounted to 9, the “Pre-emergence activity level (growth control rate) on Digitaria sanguinalis” value is recorded as 9 and the “Pre-emergence activity level (growth control rate) on Setaria viridis” value is listed as 9. Further, in data set [2], the “Pre-emergence activity level (growth control rate) on Solanum nigrum” value came to 9 and the “Pre-emergence activity level … on Veronica” value was determined as 9.
`Cc1ccc(-n2cnc(C(F)(F)F)n2)nc1Oc1cccc(C(F)F)c1` [Compound 12]: in data set [1], the “Pre-emergence plant damage level … on Corn” value amounted to 0, the “Pre-emergence plant damage level … on Cotton” value was 0 and the “Pre-emergence plant damage level … on Soybean” value is 0. In data set [2], the “Pre-emergence activity level (growth control rate) on Amaranthus retroflexus” value came to 9, the “Pre-emergence activity level (growth control rate) on Descurainia sophia” value amounted to 9, the “Pre-emergence activity level (growth control rate) on Digitaria sanguinalis” value was 9 and the “Pre-emergence activity level (growth control rate) on Setaria viridis” value is recorded as 9. Further, in data set [2], the “Pre-emergence activity level (growth control rate) on Solanum nigrum” value was found to be 9 and the “Pre-emergence activity level … on Veronica” value stood at 9.
With `Cc1ccc(-n2cnc(C(C)(F)F)n2)nc1Oc1cccc(C(F)(F)F)c1` [Compound 13], in data set [1], the “Pre-emergence plant damage level … on Corn” value is reported as 0, the “Pre-emergence plant damage level … on Cotton” value was determined as 0 and the “Pre-emergence plant damage level … on Soybean” value is listed as 0. In data set [2], the “Pre-emergence activity level (growth control rate) on Amaranthus retroflexus” value is 9; the “Pre-emergence activity level (growth control rate) on Descurainia sophia” value came to 9; the “Pre-emergence activity level (growth control rate) on Digitaria sanguinalis” value is 8 (growth control rate is greater than or equal to 90% and less than 100%); the “Pre-emergence activity level (growth control rate) on Setaria viridis” value was 7 (growth control rate is greater than or equal to 80% and less than 90%). Further, the “Pre-emergence activity level … on Veronica” value in data set [2] was determined as 9.
In the case of `Cc1ccc(-n2cnc(C(F)(F)C(F)(F)F)n2)nc1Oc1cccc(C(F)(F)F)c1` [Compound 14], in data set [1], the “Pre-emergence plant damage level … on Corn” value is 0, the “Pre-emergence plant damage level … on Cotton” value is recorded as 0 and the “Pre-emergence plant damage level … on Soybean” value is 0. In data set [2], the “Pre-emergence activity level (growth control rate) on Amaranthus retroflexus” value was 9; the “Pre-emergence activity level (growth control rate) on Descurainia sophia” value is listed as 9; the “Pre-emergence activity level (growth control rate) on Digitaria sanguinalis” value was 8 (growth control rate is greater than or equal to 90% and less than 100%); the “Pre-emergence activity level (growth control rate) on Setaria viridis” value is given as 9. Also, in data set [2], the “Pre-emergence activity level (growth control rate) on Solanum nigrum” value is 9 and the “Pre-emergence activity level … on Veronica” value is 9.
With `Cc1ccc(-n2cnc(C(F)(F)C(F)(F)F)n2)nc1Oc1cncc(C(F)(F)F)c1` [Compound 15], in data set [1], the “Pre-emergence plant damage level … on Corn” value was found to be 0, the “Pre-emergence plant damage level … on Cotton” value is on record as 0 and the “Pre-emergence plant damage level … on Soybean” value amounted to 0. For the same compound, in data set [2], the “Pre-emergence activity level (growth control rate) on Amaranthus retroflexus” value is given as 9; the “Pre-emergence activity level (growth control rate) on Descurainia sophia” value is recorded as 9; the “Pre-emergence activity level (growth control rate) on Digitaria sanguinalis” value was 8 (growth control rate is greater than or equal to 90% and less than 100%); the “Pre-emergence activity level (growth control rate) on Setaria viridis” value was 9. Moreover, in data set [2], the “Pre-emergence activity level (growth control rate) on Solanum nigrum” value was 8 (growth control rate is greater than or equal to 90% and less than 100%); the “Pre-emergence activity level … on Veronica” value is listed as 9.
Turning to `CCc1ccc(-n2cnc(C(F)(F)F)n2)nc1Oc1cncc(C(F)(F)F)c1` [Compound 17], in data set [1], the “Pre-emergence plant damage level … on Corn” value was 0, the “Pre-emergence plant damage level … on Cotton” value is listed as 0 and the “Pre-emergence plant damage level … on Soybean” value is listed as 0. Further, in data set [2], the “Pre-emergence activity level (growth control rate) on Amaranthus retroflexus” value was 9, the “Pre-emergence activity level (growth control rate) on Descurainia sophia” value is given as 9, the “Pre-emergence activity level (growth control rate) on Digitaria sanguinalis” value is on record as 9 and the “Pre-emergence activity level (growth control rate) on Setaria viridis” value is reported as 9. Further, in data set [2], the “Pre-emergence activity level (growth control rate) on Solanum nigrum” value was 9 and the “Pre-emergence activity level … on Veronica” value is listed as 9.
In the case of `CCc1ccc(-n2cnc(C(C)(F)F)n2)nc1Oc1cccc(C(F)(F)F)c1` [Compound 18], in data set [1], the “Pre-emergence plant damage level … on Corn” value worked out at 0, the “Pre-emergence plant damage level … on Cotton” value amounted to 0 and the “Pre-emergence plant damage level … on Soybean” value came out at 0. In addition, in data set [2], the “Pre-emergence activity level (growth control rate) on Amaranthus retroflexus” value was found to be 9; the “Pre-emergence activity level (growth control rate) on Descurainia sophia” value was found to be 9; the “Pre-emergence activity level (growth control rate) on Digitaria sanguinalis” value was 8 (growth control rate is greater than or equal to 90% and less than 100%); the “Pre-emergence activity level (growth control rate) on Setaria viridis” value is 8 (growth control rate is greater than or equal to 90% and less than 100%). Moreover, in data set [2], the “Pre-emergence activity level (growth control rate) on Solanum nigrum” value was 8 (growth control rate is greater than or equal to 90% and less than 100%); the “Pre-emergence activity level … on Veronica” value was determined as 9.
Regarding `CCc1ccc(-n2cnc(C(F)(F)C(F)(F)F)n2)nc1Oc1cccc(C(F)(F)F)c1` [Compound 19], in data set [1], the “Pre-emergence plant damage level … on Corn” value was 0, the “Pre-emergence plant damage level … on Cotton” value is 0 and the “Pre-emergence plant damage level … on Soybean” value is given as 0. Moreover, in data set [2], the “Pre-emergence activity level (growth control rate) on Amaranthus retroflexus” value came to 9; the “Pre-emergence activity level (growth control rate) on Descurainia sophia” value is 9; the “Pre-emergence activity level (growth control rate) on Digitaria sanguinalis” value is 8 (growth control rate is greater than or equal to 90% and less than 100%); the “Pre-emergence activity level (growth control rate) on Setaria viridis” value is 8 (growth control rate is greater than or equal to 90% and less than 100%). In addition, in data set [2], the “Pre-emergence activity level (growth control rate) on Solanum nigrum” value is 8 (growth control rate is greater than or equal to 90% and less than 100%); the “Pre-emergence activity level … on Veronica” value was 9.
As to `CCCc1ccc(-n2cnc(C(F)(F)F)n2)nc1Oc1cccc(C(F)(F)F)c1` [Compound 21], in data set [1], the “Pre-emergence plant damage level … on Corn” value is 0, the “Pre-emergence plant damage level … on Cotton” value came to 0 and the “Pre-emergence plant damage level … on Soybean” value is 0. In addition, in data set [2], the “Pre-emergence activity level (growth control rate) on Amaranthus retroflexus” value is reported as 9; the “Pre-emergence activity level (growth control rate) on Descurainia sophia” value turned out to be 9; the “Pre-emergence activity level (growth control rate) on Digitaria sanguinalis” value is 8 (growth control rate is greater than or equal to 90% and less than 100%); the “Pre-emergence activity level (growth control rate) on Setaria viridis” value is 8 (growth control rate is greater than or equal to 90% and less than 100%). Moreover, in data set [2], the “Pre-emergence activity level (growth control rate) on Solanum nigrum” value was 7 (growth control rate is greater than or equal to 80% and less than 90%); the “Pre-emergence activity level … on Veronica” value was 9.
`FC(F)(F)c1cccc(Oc2nc(-n3cnc(C(F)(F)F)n3)ccc2C2CC2)c1` [Compound 22]: in data set [1], the “Pre-emergence plant damage level … on Corn” value is reported as 0, the “Pre-emergence plant damage level … on Cotton” value is 0 and the “Pre-emergence plant damage level … on Soybean” value was 0. Also, in data set [2], the “Pre-emergence activity level (growth control rate) on Amaranthus retroflexus” value is 9; the “Pre-emergence activity level (growth control rate) on Descurainia sophia” value is on record as 9; the “Pre-emergence activity level (growth control rate) on Digitaria sanguinalis” value was 7 (growth control rate is greater than or equal to 80% and less than 90%); the “Pre-emergence activity level (growth control rate) on Setaria viridis” value is 8 (growth control rate is greater than or equal to 90% and less than 100%). In addition, in data set [2], the “Pre-emergence activity level (growth control rate) on Solanum nigrum” value was 7 (growth control rate is greater than or equal to 80% and less than 90%); the “Pre-emergence activity level … on Veronica” value was 9.
